# Experimental data published in patent US8609084B2, “Protection of plants against their pathogenic agents” (Lesaffre et Compagnie, priority 2005, dated 2013).
# Test system: Venturia inaequalis
# Assay: Efficiency against scab, grafted apple plants in pots
# Assay type: in vivo
# Set-up: Efficiency (%) Leaves treated / Efficiency (%) All leaves / Efficiency (%) New leaves: concentration or dose not given beside the values
# Description: The test was carried out on grafted plants, in pots. Three species were used: ‘Reinette des Capucins’, ‘Jonagold’, and ‘Reinette de Waleffe’, grafted on M9 rootstock. The plants were grown under a plastic tunnel at different times, so that they were all at the same stage at the time of the trial: starting with Reinette de Waleffe, then 15 days later, Reinette des Capucins, then 1 week later, Jonagold.
# The plants were labelled with the variety and the method of treatment received before inoculation.
# The method of treatment, preparation of the inoculum, inoculation and observations are similar to those described in example 1.
# The plants were treated twice, successively, 10 days apart. The day following the second treatment, the last extended leaf ? F1 ? was identified.
# Two days after the second treatment, the pathogen (Venturia inaequalis) was inoculated using a dose of 1.5×10^5 conidia/ml, directly in the moist room. Inoculation is followed by a 48 hours incubation in moist room at 18° C., then the plants remained in the boxes with a temperature of 18°±2° C. and a relative humidity of 80±10%.
# The study was organised as follows:
# The OY2 yeast cell walls correspond to an acqueous suspension at 25 mg/l of the Springcell 8001 product from Biospringer SAS, (Maisons-Alfort), France), with 96% cell walls of dry matter content.
# The observations were made on the 21st day after the inoculation of the last 2 treated leaves (F2 and F1) and on the leaf newly formed after treatment (F0) for about 25 leaves per subject.
# An observation at 41 days after the treatment gave the following results.
# At this time, new leaves had extended: F-1 and F-2, and the disease progressed by natural contamination, without any re-inoculation.
# [1] = All varieties, 21st day after inoculation
# [2] = All varieties, 41 days after the treatment
# [3] = Capucins, 21st day after inoculation
# [4] = Capucins, 41 days after the treatment
# [5] = Jonagold, 21st day after inoculation
# [6] = Jonagold, 41 days after the treatment
# [7] = Waleffe, 21st day after inoculation
# [8] = Waleffe, 41 days after the treatment
compound,measurement,setting,value
"CC(N)CC(=O)O (stereo not drawn) [baba, β-aminobutyric acid]",Efficiency (%) All leaves,[1],47.2%
same,Efficiency (%) F0,[1],27.0%
same,Efficiency (%) F1,[1],47.1%
same,Efficiency (%) F2,[1],67.6%
same,Efficiency (%) Leaves treated,[1],57.4%
same,Sporulant surface/leaf (%) F0,[1],13.0%
same,Sporulant surface/leaf (%) F1,[1],15.4%
same,Sporulant surface/leaf (%) F2,[1],9.6%
same,Efficiency (%) All leaves,[2],54.2%
same,Efficiency (%) New leaves,[2],40.1%
same,Efficiency (%) Treated leaves,[2],68.1%
same,Sporulant surface/leaf (%) F0,[2],31.0%
same,Sporulant surface/leaf (%) F1,[2],26.7%
same,Sporulant surface/leaf (%) F2,[2],10.0%
same,Sporulant surface/leaf (%) F-1,[2],28.2%
same,Sporulant surface/leaf (%) F-2,[2],8.6%
same,Efficiency (%) All leaves,[3],60.3%
same,Efficiency (%) F0,[3],45.3%
same,Efficiency (%) F1,[3],59.8%
same,Efficiency (%) F2,[3],75.8%
same,Efficiency (%) Leaves treated,[3],67.8%
same,Sporulant surface/leaf (%) F0,[3],4.3%
same,Sporulant surface/leaf (%) F1,[3],8.0%
same,Sporulant surface/leaf (%) F2,[3],4.2%
same,Efficiency (%) All leaves,[4],77.1%
same,Efficiency (%) New leaves,[4],55.5%
same,Efficiency (%) Treated leaves,[4],88.2%
same,Sporulant surface/leaf (%) F0,[4],14.07%
same,Sporulant surface/leaf (%) F1,[4],10.62%
same,Sporulant surface/leaf (%) F2,[4],4.00%
same,Sporulant surface/leaf (%) F-1,[4],9.95%
same,Sporulant surface/leaf (%) F-2,[4],4.00%
same,Efficiency (%) All leaves,[5],57.9%
same,Efficiency (%) F0,[5],38.0%
same,Efficiency (%) F1,[5],50.5%
same,Efficiency (%) F2,[5],85.1%
same,Efficiency (%) Leaves treated,[5],67.8%
same,Sporulant surface/leaf (%) F0,[5],13.9%
same,Sporulant surface/leaf (%) F1,[5],17.9%
same,Sporulant surface/leaf (%) F2,[5],6.0%
same,Efficiency (%) All leaves,[6],57.7%
same,Efficiency (%) New leaves,[6],49.0%
same,Efficiency (%) Treated leaves,[6],67.8%
same,Sporulant surface/leaf (%) F0,[6],37.79%
same,Sporulant surface/leaf (%) F1,[6],27.57%
same,Sporulant surface/leaf (%) F2,[6],10.57%
same,Sporulant surface/leaf (%) F-1,[6],29.57%
same,Sporulant surface/leaf (%) F-2,[6],3.43%
same,Efficiency (%) All leaves,[7],28.6%
same,Efficiency (%) F0,[7],10.3%
same,Efficiency (%) F1,[7],35.2%
same,Efficiency (%) F2,[7],40.3%
same,Efficiency (%) Leaves treated,[7],37.8%
same,Sporulant surface/leaf (%) F0,[7],20.9%
same,Sporulant surface/leaf (%) F1,[7],20.4%
same,Sporulant surface/leaf (%) F2,[7],18.6%
same,Efficiency (%) All leaves,[8],33.0%
same,Efficiency (%) New leaves,[8],24.0%
same,Efficiency (%) Treated leaves,[8],44.8%
same,Sporulant surface/leaf (%) F0,[8],41.05%
same,Sporulant surface/leaf (%) F1,[8],42.00%
same,Sporulant surface/leaf (%) F2,[8],15.55%
same,Sporulant surface/leaf (%) F-1,[8],45.16%
same,Sporulant surface/leaf (%) F-2,[8],18.42%
